Test results reported in ChEMBL document CHEMBL2216752, “Carnitine palmitoyltransferase (CPT) modulators: a medicinal chemistry perspective on 35 years of research” (J Med Chem, 2011).

Tests used:
[1] = Inhibition of human FAO
Sus scrofa = organism: Sus scrofa; experiment: Increase in glucose metabolic clearance rate in pig using [U14C,3-3H]glucose; format: functional
[2] = Inhibition of rat FAO
Rattus norvegicus [3] = experiment: Reduction in blood glucose in po dosed Sprague-Dawley rat; format: functional
[4] = Toxicity in po dosed Sprague-Dawley rat assessed as hypoglycemic coma; format: organism-based; conditions: in vivo
Rattus norvegicus [5] = experiment: Reduction in blood glucose in Sprague-Dawley rat at 600 umol/kg, po; format: functional; set-up: scale not given: the % may be the effect or the level left
[6] = biological target: T1, Carnitine O-palmitoyltransferase 2, mitochondrial (Rattus norvegicus, UniProt P18886); experiment: Inhibition of rat CPT2 using [3H]carnitine by radiometric assay
T1 sequence (P18886 whole entry): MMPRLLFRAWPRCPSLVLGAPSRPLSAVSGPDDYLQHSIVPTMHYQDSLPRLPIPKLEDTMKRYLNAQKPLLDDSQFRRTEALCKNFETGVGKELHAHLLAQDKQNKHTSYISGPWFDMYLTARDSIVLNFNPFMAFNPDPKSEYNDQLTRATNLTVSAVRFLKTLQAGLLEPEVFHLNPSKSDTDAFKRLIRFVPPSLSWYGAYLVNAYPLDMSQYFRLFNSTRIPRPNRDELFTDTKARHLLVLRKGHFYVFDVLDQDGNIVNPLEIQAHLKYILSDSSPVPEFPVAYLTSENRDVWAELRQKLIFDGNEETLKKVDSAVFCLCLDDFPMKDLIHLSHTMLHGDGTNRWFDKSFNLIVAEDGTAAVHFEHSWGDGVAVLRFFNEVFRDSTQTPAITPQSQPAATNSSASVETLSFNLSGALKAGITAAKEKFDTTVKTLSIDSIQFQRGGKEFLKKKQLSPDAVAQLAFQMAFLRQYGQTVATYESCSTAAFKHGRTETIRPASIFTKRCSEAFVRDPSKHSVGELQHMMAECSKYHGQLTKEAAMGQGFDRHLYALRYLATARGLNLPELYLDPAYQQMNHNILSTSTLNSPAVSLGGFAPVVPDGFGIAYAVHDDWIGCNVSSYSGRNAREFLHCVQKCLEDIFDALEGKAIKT

[7] = biological target: T2, Carnitine O-palmitoyltransferase 1, liver isoform (Rattus norvegicus, UniProt P32198); experiment: Inhibition of rat CPT1A using [3H]carnitine by radiometric assay
T2 sequence (P32198 whole entry): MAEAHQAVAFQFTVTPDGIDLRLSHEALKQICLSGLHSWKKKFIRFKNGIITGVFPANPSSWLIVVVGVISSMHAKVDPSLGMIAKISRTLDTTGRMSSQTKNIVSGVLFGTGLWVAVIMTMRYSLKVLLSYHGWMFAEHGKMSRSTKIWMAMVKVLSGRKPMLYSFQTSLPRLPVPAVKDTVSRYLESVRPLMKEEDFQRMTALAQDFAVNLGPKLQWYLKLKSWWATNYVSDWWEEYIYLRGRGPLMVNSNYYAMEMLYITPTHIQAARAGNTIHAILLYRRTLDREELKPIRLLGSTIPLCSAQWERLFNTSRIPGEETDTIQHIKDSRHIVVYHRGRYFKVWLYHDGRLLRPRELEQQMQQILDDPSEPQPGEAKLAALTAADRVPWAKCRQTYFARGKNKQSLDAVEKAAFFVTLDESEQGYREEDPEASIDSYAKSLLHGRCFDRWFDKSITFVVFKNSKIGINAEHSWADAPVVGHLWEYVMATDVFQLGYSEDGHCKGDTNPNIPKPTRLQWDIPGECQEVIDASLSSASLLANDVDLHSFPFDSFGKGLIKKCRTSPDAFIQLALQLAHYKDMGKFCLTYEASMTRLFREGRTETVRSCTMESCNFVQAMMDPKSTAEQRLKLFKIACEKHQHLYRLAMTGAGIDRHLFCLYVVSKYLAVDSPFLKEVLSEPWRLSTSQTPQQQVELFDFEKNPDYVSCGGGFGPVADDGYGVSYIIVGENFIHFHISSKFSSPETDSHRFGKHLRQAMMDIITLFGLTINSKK

[8] = biological target: Carnitine O-palmitoyltransferase 1, liver isoform (Rattus norvegicus) (UniProt P32198); experiment: Maximal inhibition of CPT1A in rat liver mitochondria
[9] = biological target: Carnitine O-palmitoyltransferase 1, muscle isoform (Rattus norvegicus) (UniProt Q63704); experiment: Maximal inhibition of CPT1B in rat muscle mitochondria; conditions: Muscle tissue
Sequence of Carnitine O-palmitoyltransferase 1, muscle isoform (Rattus norvegicus) (Q63704 whole entry, canonical isoform): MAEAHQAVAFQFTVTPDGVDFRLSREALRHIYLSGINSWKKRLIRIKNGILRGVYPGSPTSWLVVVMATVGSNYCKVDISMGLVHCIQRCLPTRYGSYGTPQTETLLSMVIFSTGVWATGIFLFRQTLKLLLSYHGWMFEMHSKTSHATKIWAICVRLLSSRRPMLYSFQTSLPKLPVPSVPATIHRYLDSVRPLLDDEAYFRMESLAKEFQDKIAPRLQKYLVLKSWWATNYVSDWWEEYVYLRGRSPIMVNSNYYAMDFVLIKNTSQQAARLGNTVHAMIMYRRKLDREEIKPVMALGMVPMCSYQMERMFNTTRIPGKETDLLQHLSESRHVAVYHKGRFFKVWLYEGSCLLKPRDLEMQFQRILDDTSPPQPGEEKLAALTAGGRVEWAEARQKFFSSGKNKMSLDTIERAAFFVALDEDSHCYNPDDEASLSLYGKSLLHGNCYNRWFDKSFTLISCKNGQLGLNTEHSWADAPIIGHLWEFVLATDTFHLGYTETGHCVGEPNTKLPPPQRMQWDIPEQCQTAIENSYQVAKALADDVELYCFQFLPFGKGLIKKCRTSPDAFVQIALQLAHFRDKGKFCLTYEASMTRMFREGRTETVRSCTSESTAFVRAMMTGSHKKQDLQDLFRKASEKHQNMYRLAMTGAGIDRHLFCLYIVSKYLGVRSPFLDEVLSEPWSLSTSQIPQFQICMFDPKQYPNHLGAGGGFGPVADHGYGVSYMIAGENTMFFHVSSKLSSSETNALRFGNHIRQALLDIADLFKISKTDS

[10] = Inhibition of carnitine palmitoyltransferase in rat heart mitochondria assessed as conversion of [14C]palmitic acid to [14C]palmitoylcarnitine by radiometric assay
Mus musculus [11] = experiment: Reduction in serum glucose level db/db mouse at 100 mg/kg/day for 30 days; format: functional; set-up: scale not given: the % may be the effect or the level left
[12] = Inhibition of carnitine palmitoyltransferase in rat liver mitochondria assessed as conversion of [14C]palmitic acid to [14C]palmitoylcarnitine by radiometric assay
Rattus norvegicus [13] = experiment: Reduction in KB level po dosed 24 hrs fasted rat measured 6 hrs post dose; format: functional
[14] = Competitive inhibition of carnitine palmitoyltransferase using palmitoyl-CoA
[15] = biological target: T3, Carnitine O-palmitoyltransferase 2, mitochondrial (Homo sapiens, UniProt P23786); experiment: Inhibition of human CPT2
T3 sequence (P23786 whole entry): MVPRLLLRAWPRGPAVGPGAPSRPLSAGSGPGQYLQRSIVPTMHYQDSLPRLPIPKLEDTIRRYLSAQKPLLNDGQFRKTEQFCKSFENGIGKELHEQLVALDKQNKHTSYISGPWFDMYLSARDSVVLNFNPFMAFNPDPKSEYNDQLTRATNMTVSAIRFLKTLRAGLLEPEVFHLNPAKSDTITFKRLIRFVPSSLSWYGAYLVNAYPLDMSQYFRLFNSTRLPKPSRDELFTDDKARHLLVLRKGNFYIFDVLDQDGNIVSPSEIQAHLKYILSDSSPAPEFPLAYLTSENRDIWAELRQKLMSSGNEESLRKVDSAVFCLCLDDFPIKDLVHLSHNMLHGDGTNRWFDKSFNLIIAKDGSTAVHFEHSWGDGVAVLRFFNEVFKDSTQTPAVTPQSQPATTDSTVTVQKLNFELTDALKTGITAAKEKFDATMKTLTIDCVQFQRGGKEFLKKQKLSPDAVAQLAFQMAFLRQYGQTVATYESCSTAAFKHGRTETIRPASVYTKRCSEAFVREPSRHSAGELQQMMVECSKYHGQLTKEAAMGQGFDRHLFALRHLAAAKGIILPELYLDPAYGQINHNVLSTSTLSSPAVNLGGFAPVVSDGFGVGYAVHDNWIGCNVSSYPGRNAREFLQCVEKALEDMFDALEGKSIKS

Rattus norvegicus [16] = experiment: Inhibition of ketogenesis in 17 hrs fasted po dosed rat; format: functional
[17] = biological target: T4, Carnitine O-palmitoyltransferase 1, muscle isoform (Homo sapiens, UniProt Q92523); experiment: Inhibition of human CPT1B
T4 sequence (Q92523 whole entry): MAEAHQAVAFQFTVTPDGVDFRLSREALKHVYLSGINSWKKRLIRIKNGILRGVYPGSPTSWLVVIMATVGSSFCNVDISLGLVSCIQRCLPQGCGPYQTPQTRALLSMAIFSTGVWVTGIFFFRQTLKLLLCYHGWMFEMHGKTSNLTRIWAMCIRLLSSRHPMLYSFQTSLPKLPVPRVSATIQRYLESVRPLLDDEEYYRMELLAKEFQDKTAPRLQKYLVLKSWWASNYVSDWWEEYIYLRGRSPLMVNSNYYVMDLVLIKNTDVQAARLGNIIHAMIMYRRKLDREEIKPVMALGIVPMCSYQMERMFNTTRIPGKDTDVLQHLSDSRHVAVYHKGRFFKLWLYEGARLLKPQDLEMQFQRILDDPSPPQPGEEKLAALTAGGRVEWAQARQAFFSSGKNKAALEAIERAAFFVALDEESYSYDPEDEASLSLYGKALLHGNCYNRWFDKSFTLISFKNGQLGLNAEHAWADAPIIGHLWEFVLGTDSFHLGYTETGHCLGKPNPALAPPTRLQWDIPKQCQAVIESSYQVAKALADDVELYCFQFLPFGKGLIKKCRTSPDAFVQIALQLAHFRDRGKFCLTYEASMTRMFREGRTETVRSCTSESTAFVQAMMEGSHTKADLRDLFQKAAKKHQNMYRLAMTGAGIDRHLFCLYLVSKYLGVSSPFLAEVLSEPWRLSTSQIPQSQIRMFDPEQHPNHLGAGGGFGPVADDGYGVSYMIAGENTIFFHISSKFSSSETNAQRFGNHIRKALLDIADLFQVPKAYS

[18] = Critical micelle concentration of compound; format: physicochemical
Mus musculus [19] = experiment: Reduction in glucose level in db/db mouse at 30 mg/kgl/day, po for 12 days; format: functional; set-up: scale not given: the % may be the effect or the level left; conditions: dose 30 mg/kg
Mus musculus [20] = experiment: Reduction in body weight in C57BL/6J mouse at 250 pmol/day, icv for 4 days; format: functional; set-up: scale not given: the % may be the effect or the level left
[21] = biological target: T5, Carnitine O-palmitoyltransferase 1, liver isoform (Homo sapiens, UniProt P50416); experiment: Inhibition of human CPT1A
T5 sequence (P50416 whole entry): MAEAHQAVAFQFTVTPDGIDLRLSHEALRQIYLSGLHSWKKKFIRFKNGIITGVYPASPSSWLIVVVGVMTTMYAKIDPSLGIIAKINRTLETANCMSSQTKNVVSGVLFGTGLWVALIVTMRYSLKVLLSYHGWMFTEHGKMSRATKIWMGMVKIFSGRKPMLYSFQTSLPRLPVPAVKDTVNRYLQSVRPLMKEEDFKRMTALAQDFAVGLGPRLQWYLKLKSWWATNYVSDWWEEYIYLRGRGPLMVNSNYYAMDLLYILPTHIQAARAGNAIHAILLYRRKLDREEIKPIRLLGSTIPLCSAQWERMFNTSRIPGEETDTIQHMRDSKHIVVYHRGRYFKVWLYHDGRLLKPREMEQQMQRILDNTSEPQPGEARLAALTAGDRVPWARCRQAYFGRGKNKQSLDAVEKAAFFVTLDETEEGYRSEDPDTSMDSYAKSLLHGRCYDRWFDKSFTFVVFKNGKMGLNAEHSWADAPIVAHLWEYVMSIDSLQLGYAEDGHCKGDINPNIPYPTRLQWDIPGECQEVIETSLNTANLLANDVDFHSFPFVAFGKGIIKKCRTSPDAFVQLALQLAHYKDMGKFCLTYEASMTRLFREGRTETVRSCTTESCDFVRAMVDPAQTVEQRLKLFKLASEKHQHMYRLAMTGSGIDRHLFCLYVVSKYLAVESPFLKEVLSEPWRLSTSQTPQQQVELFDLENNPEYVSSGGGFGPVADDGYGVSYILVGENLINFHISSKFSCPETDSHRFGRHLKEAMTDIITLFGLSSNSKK

Mus musculus [22] = experiment: Reduction in food intake in C57BL/6J mouse at 250 pmol/day, icv for 4 days; format: functional; set-up: scale not given: the % may be the effect or the level left
[23] = biological target: T5, Carnitine O-palmitoyltransferase 1, liver isoform; experiment: Inhibition of human CPT1A expressed in Saccharomyces cerevisiae mitochondria assessed as palmitoylcarnitine by HPLC method
[24] = Inhibition of carnitine palmitoyltransferase in fasted rat detergent lysed liver mitochondria by DTNB based spectrophotometric assay
Mus musculus [25] = experiment: Reduction in blood glucose level STZ-treated mouse at 1 mmol/kg, po measured 6 to 12 hrs post dose; format: functional; set-up: scale not given: the % may be the effect or the level left
Mus musculus [26] = experiment: Inhibition of [14C]palmitate oxidation to CO2 in mouse at 0.1 mmol/kg, ip; format: functional
Rattus norvegicus [27] = experiment: Toxicity in rat assessed as induction of heart muscle enlargement at 200 mg/kg/day for 12 weeks administered through food admix; format: organism-based, Muscle tissue; conditions: in vivo, 2016 h

SMILES: CCOC(=O)[C@@]1(CCCCCCOc2ccc(Cl)cc2)CO1 [ETOMOXIR]
- IC50 [1]: 290 nM
- Activity (Sus scrofa): 126%
- IC50 [2]: 340 nM

SMILES: CCOC(=O)C1(CCCCCc2ccc(Cl)cc2)CO1 (racemic)
- ED50 (Rattus norvegicus [3]): 6 mg/kg
- LD50 [4]: 275 mg/kg
- Activity (Rattus norvegicus [5]): 80%

SMILES: CCCCCCCCCCCCCCCC1(O)C[N+](C)(C)CC(CC(=O)[O-])O1 (stereo in doubt; (-)-27)
- IC50 [6]: 6700 nM
- IC50 [7]: 15500 nM

SMILES: O=C(O)[C@@]1(CCCCCCOc2ccc([N+](=O)[O-])cc2[N+](=O)[O-])CO1
- Imax [8]: 5 µM
- Imax [9]: > 60 µM

SMILES: CCCCCCCCCCCCS(=O)(=O)N[C@H](CC(=O)[O-])C[N+](C)(C)C
- IC50 [10]: 3400 nM
- Activity (Mus musculus [11]): 28%
- IC50 [12]: 700 nM
- ED50 (Rattus norvegicus [13]): 20 mg/kg
- Ki [14]: 250 nM

SMILES: CCCCCCOc1cccc(OCCCCNC(=O)N[C@H](CC(=O)[O-])C[N+](C)(C)C)c1
- IC50 [15]: 5400 nM
- IC50 [1]: 730 nM
- ED50 (Rattus norvegicus [16]): 3.7 mg/kg
- IC50 [10]: 5440 nM
- IC50 [17]: 85300 nM
- IC50 [12]: 130 nM
- CMC [18]: 0.79 mM
- Activity (Mus musculus [19]): 41%
- Activity (Mus musculus [20]): 7%
- IC50 [21]: 1700 nM
- IC50 [2]: 30 nM
- Activity (Mus musculus [22]): 25%

SMILES: CCCCCc1ccc(S(=O)(=O)NC2(CC(=O)[O-])CCC[N+](C)(C)C2)cc1 (stereo not drawn)
- IC50 [23]: < 1000 nM

SMILES: CCCCCc1ccc(S(=O)(=O)NC2(CC(=O)[O-])CC[N+](C)(C)CC2)cc1
- IC50 [23]: < 1000 nM

SMILES: CCCCCCCCCCCCCCCC(=O)NC(CC(=O)[O-])C[N+](C)(C)C (racemic)
- IC50 [24]: 50 nM
- Activity (Mus musculus [25]): 45%
- inhibition in vivo at 100 µmol/kg (Mus musculus [26]): 46%

SMILES: O=C([O-])[C@@]1(CCCCCc2ccc(Cl)cc2)CO1.[Na+] [CLOMIXIR]
- Activity (Rattus norvegicus [27]): 15%
